Experiments:
[1] = tested on: platelets (platelet aggregate formation); test: ex-vivo dynamic evaluation of the coagulation process in a whole-blood sample under flow: platelet aggregate formation; parameters: species or system human; settings: mean value, blood of subjects under the therapy, 8-bit acquisition system
Description: According to some embodiments, the method of the invention comprises the following steps: • a) providing a whole-blood sample taken from a subject and added with an anti-coagulant substance; • b) treating the blood sample of step a) with a solution consisting of fluorescent probes for marking platelets and fibrin capable of binding more or less specifically to platelets and fibrin and emitting fluorescent light on two different emission frequencies and of a recalcification solution of the blood sample. […]
(§1) From a study carried out on healthy subjects not subjected to anticoagulant or antiplatelet therapy (controls), mean values of the parameters calculated as described above were obtained. […]

[2] = tested on: fibrin (fibrin formation); test: ex-vivo dynamic evaluation of the coagulation process in a whole-blood sample under flow: fibrin formation; parameters: species or system human; settings: mean value
Description: According to some embodiments, the method of the invention comprises the following steps: • a) providing a whole-blood sample taken from a subject and added with an anti-coagulant substance; • b) treating the blood sample of step a) with a solution consisting of fluorescent probes for marking platelets and fibrin capable of binding more or less specifically to platelets and fibrin and emitting fluorescent light on two different emission frequencies and of a recalcification solution of the blood sample. The two aforesaid solutions can also be combined in a single solution or single reagent; • c) introducing said recalcified blood sample into an analytical device having at least one perfusion chamber, in which at least one wall consists of a transparent material comprising a cytoadhesive substance, the blood sample being made to flow into the perfusion chamber in known and measurable flow conditions; • d) during the blood flow in the perfusion chamber, alternately acquiring at least two series of fluorescence images, so that at least one series of fluorescence images is acquired at an emission wavelength characteristic of the fluorescent probe for platelets and at least one other series of fluorescence images is acquired at another emission wavelength characteristic of the fluorescent probe for fibrin; • e) binarizing the pixels of the acquired images for the platelets and for the fibrin, so as to generate a first curve of area covered by illuminated pixels vs. time (t) for the formation of a platelet aggregate and a second curve of area covered by illuminated pixels vs. time for the fibrin formation; • f) generating a first curve of average fluorescence intensity vs. time for the formation of the platelet aggregate and a second curve of average fluorescence intensity vs. time for the fibrin formation; • the method further comprising at least one of the following steps: • g) generating a first integrated density curve defined as the product of area and fluorescence intensity vs. time for the formation of the platelet aggregate and a second integrated density curve defined as the product of area and fluorescence intensity vs. time for the fibrin formation; • h) generating a curve of particle number vs. time, in which the number of particles is given by the number of platelet aggregates consisting of more than 2 illuminated pixels; • i) generating a curve of particle size vs. time, in which the particle size is given by the average size of the platelet aggregates consisting of more than 2 illuminated pixels; • j) generating values of maximum slope, defined as the relative maximum points of the first derivative function calculated for the curves of the parameter obtained in one or more of steps e), f), g), h) and i); • k) generating values of maximum acceleration, defined as the relative maximum points of the second derivative function calculated for the curves of the parameter obtained in one or more of steps e), f), g), h) and i); • l) generating values of F/P ratio, defined as the ratio of the AUCs of fibrin to the AUCs of the platelets of the parameter obtained in one or more of steps e), f) and g); • the method further comprising the steps of: • m) generating a lag time value representing the fibrin formation time defined as the time corresponding to the first occurrence of five consecutive images in which the value of the measured area related to fibrin is >1% of the maximum peak value of the curve; • n) generating the AUC (Area Under the Curve) values given by the area under the curve of the parameter obtained in one or more of steps e), f), g), h) and i).
as §1

Compound: CC(=O)Oc1ccccc1C(=O)O [ASA, acetylsalicylic acid]
- Platelets AUC Area ([1]; area under the curve of the area curve): 3.4 ×10^7
- Platelets AUC MGV ([1]; area under the curve of the fluorescence intensity curve): 2.0 ×10^4
- Platelets AUC ID ([1]; area under the curve of the integrated density curve): 3.0 ×10^9
- F/P Area ([2]; AUC Area ratio of fibrin to platelets, subjects under the therapy): 1.0
- F/P ID ([2]; AUC ID ratio of fibrin to platelets, subjects under the therapy): 2.2
- F/P MGV ([2]; AUC MGV ratio of fibrin to platelets, subjects under the therapy): 1.2
- Fibrin AUC Area ([2]; blood of subjects under the therapy, area under the curve of the area curve, 8-bit acquisition system): 3.0 ×10^7
- Fibrin AUC MGV ([2]; blood of subjects under the therapy, area under the curve of the fluorescence intensity curve, 8-bit acquisition system): 2.0 ×10^4
- Fibrin AUC ID ([2]; blood of subjects under the therapy, area under the curve of the integrated density curve, 8-bit acquisition system): 4.3 ×10^9

— patent US20240053368A1, “METHOD FOR EVALUATING BLOOD PARAMETERS” (SEDICIDODICI S.R.L., priority 2020, published 2024)
